The values that follow come from patent US5684034A, “1H-indole-3-acetamide sPLA2 inhibitors” (Eli Lilly and Company, priority 1995, dated 1997).

Each structure is given as a SMILES string. Like-named read-outs stand apart in the source and are kept apart here.

The target of assay [1] is T1, recombinant human secreted phospholipase A2 (Homo sapiens, UniProt P14555).
T1 sequence (P14555 21-144): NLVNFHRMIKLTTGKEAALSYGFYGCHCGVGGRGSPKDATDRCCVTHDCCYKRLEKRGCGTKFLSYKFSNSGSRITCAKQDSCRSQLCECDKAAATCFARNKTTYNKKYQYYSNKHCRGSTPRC
Briefly: Human secreted phospholipase A2 inhibition test (chromogenic assay, diheptanoyl thio-PC substrate). In kind it is biochemical. The settings on record: pH 7.5, 40° C., 30 minutes, 405 nm. As to the method:
The following chromogenic assay procedure was used to identify and evaluate inhibitors of recombinant human secreted phospholipase A2. The assay described herein has been adapted for high volume screening using 96 well microtiter plates.
A measured volume of racetic dipheptanoyl thio PC supplied in chloroform at a concentration of 100 mg/ml is taken to dryness and redissolved in 10 millimolar TRITON X-100™ nonionic detergent aqueous solution. Reaction Buffer is added to the solution, then DTNB to give the Reaction Mixture.
The reaction mixture thus obtained contains 1 mM diheptanoly thio-PC substrate, 0.29 mm Triton X-100™ detergent, and 0.12 mm DTMB in a buffered aqueous solution at pH 7.5.
1. Add 0.2 ml reaction mixture to all wells;
2. Add 10 ul test compound (or solvent blank) to appropriate wells, mix 20 seconds:
3. Add 50 nanograms of sPLA2 (10 microliters) to appropriate wells;
4. incubate plate at 40° C. for 30 minutes;
All compounds were tested in triplicate. […] Each sample was titrated in triplicate and result values were averaged for plotting and calculation of IC50 values. […] Each IC50 value was determined three times.

A further assay deals with T2, sPLA2 (Homo sapiens, UniProt P14555).
T2 sequence (P14555 21-144): T1 sequence (P14555 21-144)
The assay can be described thus: Tissue test: sPLA2-induced contraction of guinea pig lung pleural strips. Also on record: species or system guinea pig (male Hartley). The following applies: % suppression of sPLA2 contraction (sPLA2 10 ug/ml) at compound concentration of 30 uM, read-out: Tissue Test (sPLA2) % Supp (30 uM). An excerpt:
Male Hartley strain guinea pigs (500-700 g) were killed by cervical dislocation and their heart and lungs removed intact and placed in aerated (95% O2 :5% CO2) Krebs buffer. Dorsal pleural strips (4×1×25 mm) were dissected from intact parenchymal segments (8×4×25 mm) cut parallel to the outer edge of the lower lung lobes. Two adjacent pleural strips, obtained from a single lobe and representing a single tissue sample, were tied at either end and independently attached to a metal support rod. One rod was attached to a Grass force-displacement transducer (Model FTO3C, product of Grass Medical Instruments Co., Quincy, Mass., U.S.A.). […] All tissues were placed in 10 ml jacketed tissue baths maintained at 37° C. The tissue baths were continuously aerated and contained a modified Krebs solution of the following composition (millimolar) NaCl, 118.2; KCl, 4.6; CaCl2.2H2 O, 2.5; MgSO4.7H2 O, 1.2; NaHCO3, 24.8; KH2 PO4, 1.0; and dextrose, 10.0. Pleural strips from the opposite lobes of the lung were used for paired experiments. […] The tissues were allowed to equilibrate for 45 min. as the bath fluid was changed periodically.
Initially tissues were challenged 3 times with KCl (40 mM) to test tissue viability and to obtain a consistent response. After recording the maximal response to KCl, the tissues were washed and allowed to return to baseline before the next challenge. Cumulative concentration-response curves were obtained from pleural strips by increasing the agonist concentration (sPLA2) in the tissue bath by half-log10 increments while the previous concentration remained in contact with the tissues (Ref. 1, supra.) Agonist concentration was increased after reaching the plateau of the contraction elicited by the preceding concentration. One concentration-response curve was obtained from each tissue. To minimize variability between tissues obtained from different animals, contractile responses were expressed as a percentage of the maximal response obtained with the final KCl challenge. When studying the efects of various drugs on the contractile efects of sPLA2, the compounds and their respective vehicles were added to the tissues 30 min. prior to starting the sPLA2 concentration-response curves.
Data from different experiments were pooled and presented as a percentage of the maximal KCl responses (mean±S.E.). To estimate the drug induced rightward shifts in the concentration response curves, the curves were analyzed simultaneously using statistical nonlinear modeling methods similar to those described by Waud (1976), Equation 26, p. 163, (Ref. 2). The model includes four parameters: the maximum tissue response which was assumed the same for each curve, the ED50 for the control curve, the steepness of the curves, and the pA2, the concentration of antagonist chat requires a two-fold increase in agonist to achieve an equivalent response. The Schild slope was determined to be 1, using statistical nonlinear modeling methods similar to those described by Waud (1976), Equation 27, p. 164 (Ref. 2).
To estimate the drug-induced suppression of the maximal responses, sPLA2 responses (10 ug/ml) were determined in the absence and presence of drug, and percent suppression was calculated for each pair of tissues.

The mark [2] stands for this setting: read-out: Inhibition of human secreted PLA2 IC50 ± mean deviation (3-5 tests).

The term IC50 denotes the midpoint of a concentration-inhibition curve. For `COc1ccc2c(c1)c(CC(N)=O)c(C)n2CC1CCCCC1` [Example 4, 1-Cyclohexylmethyl-5-methoxy-2-methyl-1H-indole-3-acetamide], the IC50 in assay [1] (setting [2]) came out at 2050 ± 850 nM. For the same compound, on sPLA2, the inhibition at 30 µM came out at 10.5 ± 23.1%.
The like results for `COc1ccc2c(c1)c(CC(N)=O)c(C)n2Cc1ccccc1` [Example 5, 5-Methoxy-2-methyl-1-(phenylmethyl)-1H-indole-3-acetamide] were, in that order, 840 ± 170 nM and 74.9 ± 4.2%.
On to `CCc1c(CC(N)=O)c2cc(OC)ccc2n1Cc1ccccc1` [Example 9, 2-Ethyl-5-methoxy-1-(phenylmethyl)-1H-indole-3-acetamide], for which the IC50 in assay [1] (setting [2]) is 260 ± 110 nM. The inhibition at 30 µM at sPLA2 came to 49.2 ± 9.4%.
In the case of `COc1ccc2c(c1)c(CC(N)=O)c(SC)n2Cc1ccccc1` [Example 12, 5-Methoxy-2-(methylthio)-1-(phenylmethyl)-1H-indole-3-acetamide], in assay [1] (Inhibition of human secreted PLA2 IC50 ± mean deviation (3-5 tests)), the IC50 is 400 ± 90 nM. Moreover, at sPLA2, the inhibition at 30 µM stood at 30.3 ± 15.2%.
For the compound `Cc1c(CC(N)=O)c2cc([N+](=O)[O-])ccc2n1Cc1ccccc1` [Example 16, 2-Methyl-5-nitro-1-(phenylmethyl)-1H-indole-3-acetamide], the IC50 in assay [1] (setting [2]) worked out at 1840 ± 440 nM. Further, the inhibition at 30 µM at sPLA2 was 51.7 ± 4.2%.
The corresponding values for `CCOC(=O)COc1ccc2c(c1)c(CC(N)=O)c(C)n2Cc1ccccc1` [Example 18, 2-[[3-(2-Amino-2-oxoethyl)-2-methyl-1-(phenylmethyl)-1H-indol-5-yl]oxy]acetic acid ethyl ester] are 800 ± 50 nM and 74.1 ± 4%.
For the compound `Cc1c(CC(N)=O)c2cc(OCCCCC(=O)O)ccc2n1Cc1ccccc1` [Example 23, 5-[[3-(2-Amino-2-oxoethyl)-2-methyl-1-(phenylmethyl)-1H-indol-5-yl]oxy]pentanoic acid], the IC50 in assay [1] (setting [2]) came out at 920 ± 360 nM. The inhibition at 30 µM on sPLA2 worked out at 83.3 ± 2.7%.
For `CCc1c(CC(N)=O)c2cc(OCc3ccccc3C(=O)O)ccc2n1Cc1ccccc1` [Example 99, 2-[[[3-(2-Amino-2-oxoethyl)-2-ethyl-1-(phenylmethyl)-1H-indol-5-yl]oxy]methyl]benzoic acid], the IC50 in assay [1] (setting [2]) came to 540 ± 180 nM.
On the same count and under the same terms, for `COC(=O)c1cccc(COc2ccc3c(c2)c(CC(N)=O)c(C)n3Cc2ccccc2)c1` [Example 100, 3-[[[3-(2-Amino-2-oxoethyl)-2-methyl-1-(phenylmethyl)-1H-indol-5-yl]oxy]methyl]benzoic acid methyl ester] the value was 3840 ± 1320 nM; for `Cc1c(CC(N)=O)c2cc(OCc3cccc(C(=O)O)c3)ccc2n1Cc1ccccc1` [Example 101, 3-[[[3-(2-Amino-2-oxoethyl)-2-methyl-1-(phenylmethyl)-1H-indol-5-yl]oxy]methyl]benzoic acid], 1890 ± 500 nM.
